This experiment concerns the target T1, chicken gizzard smooth muscle myosin subfragment-1 chemically crosslinked to cardiac or skeletal actin (Gallus gallus, UniProt P10587).
T1 construct: chicken gizzard smooth muscle myosin subfragment-1; from tissue; host or cells: chicken gizzard
The experiment is described as follows: Smooth muscle myosin ATPase dose response assay (pyruvate kinase/horseradish peroxidase/pyruvate oxidase-coupled, amplex red fluorescence). Type of experiment: biochemical. Particulars: read-out: IC50 Arithmetic Mean. As to the method:
In Vitro Model of Dose Dependent Smooth Muscle Myosin ATPase Modulation
Screening assays were performed using a pyruvate kinase and lactate dehydrogenase-coupled ATPase assay containing the following reagents: Potassium PIPES (50 mM), MgCl2 (3 mM), KCl (100 mM), ATP (0.15 mM), DTT (1 mM), BSA (0.1 mg/ml), NADH (0.5 mM), PEP (1.5 mM), pyruvate kinase (4 U/ml), lactate dehydrogenase (8 U/ml), and antifoam (50 ppm) (concentrations expressed are final assay concentrations). The pH was adjusted to 6.80 at 22° C. by addition of potassium hydroxide. Lead optimization assays were performed with a more sensitive pyruvate kinase/horseradish peroxidase/pyruvate oxidase-coupled ATPase assay containing the following reagents: Potassium PIPES (12 mM), MgCl2 (2 mM), KCl (100 mM), ATP (0.15 mM), BSA (0.05 mg/ml), potassium phosphate (2 mM), amplex red (0.1 mM), PEP (0.1 mM), pyruvate kinase (4 U/ml), horseradish peroxidase (0.5 U/ml), pyruvate oxidase (0.5 U/ml), and antifoam (50 ppm) (concentrations expressed are final assay concentrations). The pH was adjusted to 7.00 at 22° C. by addition of potassium hydroxide.
The protein components specific to this assay are chicken gizzard smooth muscle myosin subfragment-1 that has been chemically crosslinked to either cardiac or skeletal actin using an excess of 1-Ethyl-3-[3-dimethylaminopropyl]carbodiimide hydrochloride and N-hydroxysuccinimide. The exact concentration of the crosslinked smooth muscle myosin in the assay is determined empirically, by titration to achieve a desired rate of ATP hydrolysis. The concentration varies between protein preparations due to variations in the fraction of active molecules in each preparation.
Compound dose response assays are performed by first preparing a dilution series of test compound, each with an assay mixture containing potassium PIPES, MgCl2, KCl, ATP, BSA, potassium phosphate, amplex red, PEP, crosslinked smooth muscle actomyosin (subfragment-1), antifoam, and water. The assay is started by adding an equal volume of solution containing potassium Pipes, MgCl2, KCl, BSA, potassium phosphate, pyruvate kinase, horseradish peroxidase, pyruvate oxidase, antifoam, and water. ATP hydrolysis is monitored by measuring the fluorescence of amplex red (excitation at 480 nm, emission at 615 nm). The resulting dose response curve is fit by the 4 parameter equation y=Bottom+((Top-Bottom)/(1+((IC50/X)^Hill))). The IC50 is defined as the concentration at which ATPase activity is midway between the top and bottom of the dose response curve.
T1 sequence (P02607 2-151): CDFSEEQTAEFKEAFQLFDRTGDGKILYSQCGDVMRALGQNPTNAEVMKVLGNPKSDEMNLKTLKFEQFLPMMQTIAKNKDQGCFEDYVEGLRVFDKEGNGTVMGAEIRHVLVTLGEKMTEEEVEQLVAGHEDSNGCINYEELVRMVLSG
T1 sequence (P10587 84-789): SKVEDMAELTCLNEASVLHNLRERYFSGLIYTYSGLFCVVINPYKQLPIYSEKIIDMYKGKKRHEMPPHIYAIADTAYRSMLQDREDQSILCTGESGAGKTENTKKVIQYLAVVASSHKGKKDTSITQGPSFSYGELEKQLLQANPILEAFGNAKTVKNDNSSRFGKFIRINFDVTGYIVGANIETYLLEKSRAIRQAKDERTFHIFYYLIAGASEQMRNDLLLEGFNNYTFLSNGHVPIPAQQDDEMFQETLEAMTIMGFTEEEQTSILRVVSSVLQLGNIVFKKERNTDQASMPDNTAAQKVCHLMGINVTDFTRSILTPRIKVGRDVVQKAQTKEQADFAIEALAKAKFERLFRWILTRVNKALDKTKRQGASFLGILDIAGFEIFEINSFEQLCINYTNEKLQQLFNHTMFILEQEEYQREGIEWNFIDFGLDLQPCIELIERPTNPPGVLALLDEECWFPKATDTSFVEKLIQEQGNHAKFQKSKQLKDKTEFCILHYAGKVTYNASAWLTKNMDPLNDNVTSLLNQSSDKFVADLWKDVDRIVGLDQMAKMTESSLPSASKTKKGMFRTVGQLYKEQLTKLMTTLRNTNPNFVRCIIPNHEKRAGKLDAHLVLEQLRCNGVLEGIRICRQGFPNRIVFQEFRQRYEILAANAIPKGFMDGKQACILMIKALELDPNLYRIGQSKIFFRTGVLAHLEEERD
As usually defined, the IC50 is the concentration that inhibits the measured activity by half. For `O=C(NCc1cccnc1)c1ccc(-c2ccccc2)nc1NCCC1OCCO1` [{2-[(2-(1,3-dioxolan-2-yl)ethyl)amino]-6-phenyl(3-pyridyl)}-N-(3-pyridylmethyl)carboxamide], the IC50 was found to be 7.12 µM. To `COC(=O)CCCNC(=O)c1ccc(-c2ccccc2C#N)nc1NCCc1cccc(F)c1` [methyl 4-[(6-(2-cyanophenyl)-2-{[2-(3-fluorophenyl)ethyl]amino}-3-pyridyl)carbonylamino]butanoate] belongs 0.713 µM.

Take `C[C@H](CNC(=O)c1cc(F)c(-c2cn[nH]c2)nc1NCCc1cccc(F)c1)NC(=O)OC(C)(C)C` [N-{(2R)-2-[(tert-butoxy)carbonylamino]propyl}(5-fluoro-2-{[2-(3-fluorophenyl)ethyl]amino}-6-pyrazol-4-yl(3-pyridyl))carboxamide]: the IC50 was 8.21 µM.

For `COC[C@H](N)C(=O)N1CCC[C@@H]1CNC(=O)c1ccc(-c2ccccc2C#N)nc1NCCc1cccc(F)c1` [N-{[(2R)-1-((2S)-2-amino-3-methoxypropanoyl)pyrrolidin-2-yl]methyl}(6-(2-cyanophenyl)-2-{[2-(3-fluorophenyl)ethyl]amino}(3-pyridyl))carboxamide], the IC50 was 0.193 µM.

Consider `C[C@@H](CNC(=O)c1ccc(-c2ccccc2C#N)nc1NCCc1cccc(F)c1)NC(=O)CCCNC(=O)OC(C)(C)C`, for which the IC50 was 2.02 µM.

In the case of `COc1cccc(CCNc2nc(-c3ccccc3)ccc2C(=O)NCc2cccnc2)c1` [(2-{[2-(3-methoxyphenyl)ethyl]amino}-6-phenyl(3-pyridyl))-N-(3-pyridylmethyl)carboxamide], the IC50 turned out to be 0.269 µM. On to `N#Cc1ccccc1-c1ccc(C(=O)NC[C@H](N)C(=O)O)c(NCCc2cccc(F)c2)n1` [(2S)-2-amino-3-[(6-(2-cyanophenyl)-2-{[2-(3-fluorophenyl)ethyl]amino}(3-pyridyl))carbonylamino]propanoic acid], for which the IC50 came out at 9.76 µM. As for `NCc1cccc(CNC(=O)c2ccc(-c3ccccc3)nc2NCCc2cccc(F)c2)n1` [N-{[6-(aminomethyl)(2-pyridyl)]methyl}(2-{[2-(3-fluorophenyl)ethyl]amino}-6-phenyl(3-pyridyl))carboxamide], the IC50 came to 0.019 µM. The same measure for `Cn1cc(-c2nc(NCCc3cccc(F)c3)c(C(=O)NCCCN)cc2F)cn1` [N-(3-aminopropyl)(5-fluoro-2-{[2-(3-fluorophenyl)ethyl]amino}-6-(1-methylpyrazol-4-yl)(3-pyridyl))carboxamide]: 3.96 µM; for `Cn1cc(-c2nc(NCCc3cccc(F)c3)c(C(=O)NC[C@H]3CCCN3C(=O)CCCNC(=O)OC(C)(C)C)cc2C#N)cn1` [N-[((2R)-1-{4-[(tert-butoxy)carbonylamino]butanoyl}pyrrolidin-2-yl)methyl](5-cyano-2-{[2-(3-fluorophenyl)ethyl]amino}-6-(1-methylpyrazol-4-yl)(3-pyridyl))carboxamide]: 1.61 µM; for `CS(=O)(=O)N1CC(=O)N[C@@H](CNC(=O)c2ccc(-c3ccccc3C#N)nc2NCCc2cccc(F)c2)C1` (stereo in doubt) [(6-(2-cyanophenyl)-2-{[2-(3-fluorophenyl)ethyl]amino}(3-pyridyl))-N-{[4-(methylsulfonyl)-6-oxopiperazin-2-yl]methyl}carboxamide]: 2.56 µM. The same measure for `C[C@H](CNC(=O)c1ccc(-c2ccccc2C#N)nc1NCCc1cccc(F)c1)NS(C)(=O)=O` [N-{(2R)-2-[(methylsulfonyl)amino]propyl}(6-(2-cyanophenyl)-2-{[2-(3-fluorophenyl)ethyl]amino}(3-pyridyl))carboxamide]: 1.33 µM. The same measure for `N#Cc1ccccc1-c1ccc(C(=O)NCc2cccnc2CNC(=O)c2ccc(-c3ccccc3C#N)nc2NCCc2cccc(F)c2)c(NCCc2cccc(F)c2)n1` [(6-(2-cyanophenyl)-2-{[2-(3-fluorophenyl)ethyl]amino}(3-pyridyl))-N-[(3-{[(6-(2-cyanophenyl)-2-{[2-(3-fluorophenyl)ethyl]amino}(3-pyridyl))carbonylamino]methyl}(2-pyridyl))methyl]carboxamide]: 2.44 µM; for `O=C1CC[C@H](CNC(=O)c2ccc(-c3cn[nH]c3)nc2NCCc2cccc(F)c2)N1` [N-[((2R)-5-oxopyrrolidin-2-yl)methyl](2-{[2-(3-fluorophenyl)ethyl]amino}-6-pyrazol-4-yl(3-pyridyl))carboxamide]: 0.119 µM. For `N#Cc1ccccc1-c1ccc(C(=O)NC[C@H]2CCCN2C(=O)CCCN)c(NCCc2cccc(F)c2)n1` [N-{[(2R)-1-(4-aminobutanoyl)pyrrolidin-2-yl]methyl}(6-(2-cyanophenyl)-2-{[2-(3-fluorophenyl)ethyl]amino}(3-pyridyl))carboxamide], the IC50 was 0.029 µM. To `O=Cc1cc(-c2ccc(C(=O)NCc3cccnc3)c(NCCc3cccc(F)c3)n2)cs1` [(2-{[2-(3-fluorophenyl)ethyl]amino}-6-(5-formyl(3-thienyl))(3-pyridyl))-N-(3-pyridylmethyl)carboxamide] belongs 0.098 µM; to `NCC(O)c1ccc(-c2ccccc2)nc1NCCc1cccc(F)c1` (stereo not drawn) [2-amino-1-(2-{[2-(3-fluorophenyl)ethyl]amino}-6-phenyl(3-pyridyl))ethan-1-ol], 52.5 µM. The same measure for `Cn1nccc1CNC(=O)c1ccc(-c2ccccc2C#N)nc1NCCc1cccc(F)c1` [(6-(2-cyanophenyl)-2-{[2-(3-fluorophenyl)ethyl]amino}(3-pyridyl))-N-[(1-methylpyrazol-5-yl)methyl]carboxamide]: 0.031 µM; for `CN[C@H](C)CNC(=O)c1ccc(-c2ccccc2C#N)nc1NCCc1cccc(F)c1` [N-[(2R)-2-(methylamino)propyl](6-(2-cyanophenyl)-2-{[2-(3-fluorophenyl)ethyl]amino}(3-pyridyl))carboxamide]: 1.89 µM; for `Cc1ccccc1CCNc1nc(-c2ccccc2C#N)ccc1C(=O)NCc1cccnc1` [(6-(2-cyanophenyl)-2-{[2-(2-methylphenyl)ethyl]amino}(3-pyridyl))-N-(3-pyridylmethyl)carboxamide]: 0.076 µM. Turning to `C[C@@H](CNC(=O)c1ccc(-c2ccccc2C#N)nc1NCCc1cccc(F)c1)NS(C)(=O)=O` [N-{(2S)-2-[(methylsulfonyl)amino]propyl}(6-(2-cyanophenyl)-2-{[2-(3-fluorophenyl)ethyl]amino}(3-pyridyl))carboxamide], the IC50 worked out at 1.21 µM. To `CNC(=O)[C@H](CNC(=O)OC(C)(C)C)NC(=O)c1ccc(-c2ccccc2C#N)nc1NCCc1cccc(F)c1` [(2S)-3-[(tert-butoxy)carbonylamino]-2-[(6-(2-cyanophenyl)-2-{[2-(3-fluorophenyl)ethyl]amino}(3-pyridyl))carbonylamino]-N-methylpropanamide] belongs 43.6 µM; to `NCC(=O)N1CCC[C@@H]1CNC(=O)c1cc(F)c(-c2cc[nH]n2)nc1NCCc1cccc(F)c1` [N-{[(2R)-1-(2-aminoacetyl)pyrrolidin-2-yl]methyl}(5-fluoro-2-{[2-(3-fluorophenyl)ethyl]amino}-6-pyrazol-3-yl(3-pyridyl))carboxamide], 0.108 µM; to `COC(=O)CCC(=O)N1CCC[C@@H]1CNC(=O)c1cc(F)c(-c2cnn(C)c2)nc1NCCc1cccc(F)c1` [methyl 4-((2R)-2-{[(5-fluoro-2-{[2-(3-fluorophenyl)ethyl]amino}-6-(1-methylpyrazol-4-yl)(3-pyridyl))carbonylamino]methyl}pyrrolidinyl)-4-oxobutanoate], 0.534 µM.
